Assays:
[1] = Monitoring of the blood clearance profile of peptide-dye conjugates; format: in vivo; conditions: rat ear, bolus injection in lateral tail vein, 830 nm after excitation at 780 nm
From the text: A laser of appropriate wavelength for excitation of the dye chromophore was directed into one end of a fiber optic bundle and the other end was positioned a few millimeters from the ear of a rat. A second fiber optic bundle was also positioned near the same ear to detect the emitted fluorescent light and the other end was directed into the optics and electronics for data collection. An interference filter (IF) in the collection optics train was used to select emitted fluorescent light of the appropriate wavelength for the dye chromophore.
After the animals had achieved the desired plane of anesthesia, a 21 gauge butterfly with 12″ tubing was placed in the lateral tail vein of each animal and flushed with heparinized saline. The animals were placed onto a heating pad and kept warm throughout the entire study. The lobe of the left ear was affixed to a glass microscope slide to reduce movement and vibration.
Incident laser light delivered from the fiber optic was centered on the affixed ear. Data acquisition was then initiated, and a background reading of fluorescence was obtained prior to administration of the test agent. […] This procedure was repeated with several dye-peptide conjugates in normal and tumor bearing rats. […] The data were analyzed using a standard sigma plot software program for a one compartment model.

[2] = test system: Rat pancreatic acinar carcinoma expressing the SST-2 receptor (CA20948); test: Non-invasive in vivo fluorescence imaging of rat pancreatic acinar carcinoma (CA20948)
From the text: (§1) A non-invasive in vivo fluorescence imaging apparatus was employed to assess the efficacy of contrast agents developed for tumor detection in animal models. A LaserMax Inc. laser diode of nominal wavelength 780 nm and nominal power of 40 mW was used. The detector was a Princeton Instruments model RTE/CCD-1317-K/2 CCD camera with a Rodenstock 10 mm F2 lens (stock #542.032.002.20) attached. An 830 nm interference […] (CVI Laser Corp., part # F10-830-4-2) was mounted in front of the CCD input lens such that only emitted fluorescent light from the contrast agent was imaged. Typically, an image of the animal was taken pre-injection of contrast agent. This image was subsequently subtracted (pixel by pixel) from the post injection images. However, the background subtraction was […] done once the animal had been removed from the sample area and returned at a later time for images taken several hours post injection.
DSL 6A tumors were induced in male Lewis rats in the left flank area by the introduction of material from a solid (donor) implant and the tumors were palpable in approximately 14 days. The animals were anesthetized with xylazine; ketamine; acepromazine 1.5:1.5:0.5 at 0.8 mL/kg via intramuscular injection. The area of the tumor (left flank) was shaved to expose tumor and surrounding surface area. A 21 gauge butterfly equipped with a stopcock and two syringes containing heparinized saline was placed into the later tail vein of the rat. Patency of the vein was checked prior to administration of the ICG via the butterfly apparatus. Each animal received […] of a 0.42 mg/mL solution of ICG in water.
The imaging apparatus and the procedure used are described in Example 12. Rat pancreatic acinar carcinoma expressing the SST-2 receptor (CA20948) was induced by solid implant technique in the left flank area, and palpable masses were detected nine days post implant. The images obtained at 2 and 30 minutes post injection are shown in FIG. 7E-F. FIGS. 7E-F are images of a rat with an induced pancreatic acinar carcinoma (CA20948) expressing the SST-2 receptor imaged at two minutes (FIG. 7E) and 30 minutes (FIG. 7F) post injection.
The imaging apparatus and the procedure used are described in Example 12 except that each animal received 500 μl of a 1.0 mg/mL solution of Cytate 1 solution of 25% dimethylsulfoxide in water.
Rat pancreatic acinar carcinoma expressing the SST-2 receptor (CA20948) were induced by solid implant technique in the left flank area, and palpable masses were detected 24 days post implant. Images were obtained at various times post injection.
Cytate 1 was evaluated in the CA20948 Lewis rat model. […] At 27 hours post injection, the animal was again imaged (FIG. 9B).

[3] = Imaging of individual organs removed from CA20948 tumor-bearing rat; format: in vivo
Method: Individual organs were removed at about 24 hours post Cytate 1 administration and imaged.

[4] = test system: DSL 6A tumors; test: Non-invasive in vivo fluorescence imaging of pancreatic ductal adenocarcinoma (DSL 6A); set-up: species or system rat
From the text: as §1
DSL 6A tumors were induced in male Lewis rats in the left flank area by the introduction of material from a solid (donor) implant and the tumors were palpable in approximately 14 days. The animals were anesthetized with xylazine; ketamine; acepromazine 1.5:1.5:0.5 at 0.8 mL/kg via intramuscular injection. The area of the tumor (left flank) was shaved to expose tumor and surrounding surface area. […]

[5] = test system: Prostatic carcinoma tumor (Dunning R3327-H); test: Non-invasive in vivo fluorescence imaging of prostatic carcinoma (R3327-H); set-up: species or system rat
[6] = CA20948 tumor, 45 minutes post injection
[7] = organ removed about 24 hours post administration
[8] = tissue removed about 24 hours post administration

For `C[C@@H](O)[C@H](NC(=O)[C@@H]1CSSC[C@H](NC(=O)[C@@H](Cc2ccccc2)NC(=O)CCN2C(=CC=CC=CC=CC3=[N+](CCC(=O)N[C@H](Cc4ccccc4)C(=O)N[C@H]4CSSC[C@@H](C(=O)N[C@H](C(=O)O)[C@@H](C)O)NC(=O)[C@H]([C@@H](C)O)NC(=O)[C@H](CCCCN)NC(=O)[C@@H](Cc5c[nH]c6ccccc56)NC(=O)[C@H](Cc5ccc(O)cc5)NC4=O)c4ccc5ccccc5c4C3(C)C)C(C)(C)c3c2ccc2ccccc32)C(=O)N[C@@H](Cc2ccc(O)cc2)C(=O)N[C@H](Cc2c[nH]c3ccccc23)C(=O)N[C@@H](CCCCN)C(=O)N[C@@H]([C@@H](C)O)C(=O)N1)C(=O)O` [Cytate 2, bisOctreotate-Bismethylcarboxymethylindocyanine dye], the “fluorescence signal in blood after injection (rise)” value [1] was “rapidly increased to a peak value” and the “fluorescence signal in blood over time (clearance)” value [1] was “decayed as a function of time”.
In the case of `C[C@@H](O)[C@H](NC(=O)[C@@H]1CSSC[C@H](NC(=O)[C@@H](Cc2ccccc2)NC(=O)CCN2C(=CC=CC=CC=CC3=[N+](CCC(=O)O)c4ccc5ccccc5c4C3(C)C)C(C)(C)c3c2ccc2ccccc32)C(=O)N[C@@H](Cc2ccc(O)cc2)C(=O)N[C@H](Cc2c[nH]c3ccccc23)C(=O)N[C@@H](CCCCN)C(=O)N[C@@H]([C@@H](C)O)C(=O)N1)C(=O)O` [Cytate 1, monoOctreotate-Bismethylcarboxymethylindocyanine dye], the “localization of dye in the tumor” value ([2]; CA20948 Lewis rat model, 45 minutes post injection) is reported as “localization of this dye was observed in the tumor”, the tumor visualization ([2]; CA20948 Lewis rat model, 27 hours post injection) is reported as “easily observed” and the “time course of uptake into the tumor” value ([2]; CA20948 tumor, 500 μl of 1.0 mg/mL in 25% dimethylsulfoxide in water) is reported as “seen at two minutes but was not maximal until about five minutes”. For the same molecule, the “uptake (dye fluorescence) in tumor at 45 minutes” value [2, 6] was “still quite intense”, the “persistence of dye fluorescence in the tumor” value ([2]; CA20948 tumor, post-injection) was “remained intense in the tumor for several hours” and the uptake in adrenals [3, 7] was “high uptake”. For the same molecule, the uptake in heart [3, 7] was “significantly lower uptake”, the uptake in liver [3, 7] was “significantly lower uptake” and the uptake in pancreas [3, 7] was “high uptake”. The uptake in spleen [3, 7] was “significantly lower uptake”, the uptake in muscle [3, 8] was “significantly lower uptake” and the “uptake in tumor tissue” value [3, 8] was “high uptake”. The “fluorescence signal in blood after injection (rise)” value [1] was “rapidly increased to a peak value” and the “fluorescence signal in blood over time (clearance)” value [1] was “decayed as a function of time”.
In the case of `CC1(C)C(/C=C/C=C/C=C/C=C2\N(CCCCS(=O)(=O)O)c3ccc4ccccc4c3C2(C)C)=[N+](CCCCS(=O)(=O)[O-])c2ccc3ccccc3c21` [ICG, indocyanine green], the “perfusion of the agent into the tumor” value ([4]; DSL 6/A (pancreatic) tumor line, CCD camera) is reported as “slow perfusion of the agent over time into the tumor”, the “dye intensity in the tumor” value ([4]; DSL 6A tumor, male Lewis rats, 30 minutes post-ICG injection (vs two minutes), tail vein bolus 0.5 ml aqueous solution) is reported as “considerably diminished” and the “perfusion of the agent into the tumor” value ([5]; Dunning R3327H (prostate) tumor line, CCD camera) is reported as “slow perfusion of the agent over time into the tumor”. For the same molecule, the “dye intensity in the tumor” value ([5]; R3327-H tumor, Copenhagen rats, 30 minutes post-ICG injection (vs two minutes)) was “considerably diminished”, the “perfusion of the agent into the tumor” value ([2]; CA20948 (pancreatic) tumor line, CCD camera) was “only a slight but transient perfusion that was absent after only 30 minutes post injection” and the “dye intensity in the tumor” value ([2]; CA20948 tumor, 30 minutes post-ICG injection (vs two minutes)) was “considerably diminished and almost absent”. The “uptake (dye fluorescence) in tumor at 45 minutes” value [2, 6] was “mostly cleared”.
